Reference: patent US9987200B2, “Activated micro-bubble based root canal disinfection” (SyACT, LLP, priority 2014, dated 2018)

Columns and labels:
[1] = test system: Enterococcus faecalis biofilms; experiment: Confocal laser scanning microscopy of biofilms subjected to different treatments (FIG. 15); type: cell-based; settings: one week old E. faecalis biofilms; live green, dead red; light 660 nm
Description: FIG. 15 contains in the first two columns, images showing the three-dimensional confocal laser scanning microscopy reconstruction of the Enterococcus faecalis biofilms subjected to different treatments (60×).
The first two columns of FIG. 15 contain images which show one week old bacterial biofilms of Enterococcus faecalis before and after treatment for the different groups. Each of the six images in the first two columns show active and dead bacteria, with the active bacteria being shown in green and the dead bacteria being shown in red. The two left-hand columns of FIG. 15 contains, images showing the three-dimensional confocal laser scanning microscopy reconstruction of the Enterococcus faecalis biofilms subjected to different treatments (60×). […] However, there active bacteria remain.

bacterial biofilms = experiment: Laser confocal microscopy of treated root canals, live/dead bacteria (FIGS. 20-22); type: cell-based; settings: then sonic and light activation of the micro-bubble solution
Description: FIGS. 21-22 show laser confocal microscopy images showing bacterial biofilms (and dead cells as red and viable cells are green).
In these photographs, active bacteria are shown in green and dead bacteria as shown in red. FIG. 20 contains photomicrographs of a control tooth.

[2] = Singlet oxygen release measured with 1,3-diphenylisobenzofuran (DPBF); type: physicochemical; settings: with sonic activation compared with no sonic activation (FIG. 11)
Method: As noted above, when the light reaches the photosensitive compound, the photosensitive compound releases energy to convert the oxygen molecules to singlet oxygen. […] The singlet oxygen release was measured using 1, 3-diphenylisobenzofuran (DPBF). DPBF is a chemical used to study the degree of release of singlet oxygen; it is not actually part of the micro-bubble solution or the photosensitizing solution. As is known, DPBF undergoes bleaching with singlet oxygen and this can be calorimetrically quantified. […]
FIG. 11 contains graphs showing singlet oxygen yield of methylene blue (on the left hand graph) and rose bengal (on the right hand graph) both with sonic activation (square data points) and without sonic activation (diamond data points). […] The substantial fall off in absorbance in the sonically activated samples (as compared to the non-activated samples) for both the methylene blue and the rose bengal show substantial increase in micro-bubble activity within the first few seconds of activation of the micro-bubble solution.

[3] = cited from earlier work

OCl [sodium hypochlorite]
Active (live) bacteria remaining in biofilm [1]: kills (eliminates) nearly all of the active bacteria

CN(C)c1ccc2nc3ccc(=[N+](C)C)cc-3sc2c1 [methylene blue]
Active bacteria remaining in root canal (bacterial biofilms; MB in a water carrier): substantially all of the active bacteria have been eliminated
Active bacteria remaining in root canal (bacterial biofilms; MB in polyethylene glycol, alcohol and water carrier solution): substantially all of the active bacteria have been eliminated
Fall off in absorbance (singlet oxygen yield) [2]: falls off much more rapidly

O=C([O-])c1c(Cl)c(Cl)c(Cl)c(Cl)c1-c1c2cc(I)c(=O)c(I)c-2oc2c(I)c([O-])c(I)cc12.[Na+].[Na+] [rose bengal]
Fall off in absorbance (singlet oxygen yield) [2]: fell off much more quickly

Triton X-100
Solubility ([3]; at 25° C. in water, benzene, toluene, xylene, trichloroethylene, ethylene glycol, ethyl ether, ethanol, isopropanol, ethylene dichloride): soluble in all proportions
Viscosity (Brookfield) ([3]; at 25° C.): 240 cps
